Test system: drug resistant clinical M. tuberculosis isolates
Assay type: cell-based, Mycobacterium tuberculosis
Parameters: unit not given beside the values
Details: 29 clinical isolates, 18 MDR and 5 XDR

SMILES	MIC range
CN[C@@H]1[C@H](O)[C@H](NC)[C@H]2O[C@]3(O)[C@H](O[C@@H]2[C@H]1O)O[C@H](C)C[C@H]3NC(=O)Cc1ccc(O)cn1.Cl.Cl.Cl [Compound 39, 3′-Dihydro-3′-deoxy-3′(R)-(5-hydroxypyridin-2-yl)acetylamino spectinomycin trihydrochloride]	1.56–3.13
Br.Br.Br.CN[C@@H]1[C@H](O)[C@H](NC)[C@H]2O[C@]3(O)[C@H](O[C@@H]2[C@H]1O)O[C@H](C)C[C@H]3NC(=O)Cc1cc(Cl)c(F)cn1 [Compound 49, 3′-Dihydro-3′-deoxy-3′(R)-(4-chloro-5-fluoropyridin-2-yl)acetylamino spectinomycin trihydrobromide]	0.39–1.56
